# From patent US20260262643A1, “HERBICIDAL BENZOXAZINES” (FMC CORPORATION, priority 2022, published 2026)
# How the values were obtained:
# oat, wild [1] = experiment: Test C preemergence; format: in vivo, Avena fatua; conditions: 0 to 100 scale (0 no effect, 100 complete control); for Plant response rating, Oat, Wild: Preemergence, 500 g ai/ha, visual rating after 10 days; for Oat, Wild plant response rating: Test C, preemergence, 125 g ai/ha
# Procedure, shortened: (§1)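 Seeds in loam–sand blend received preemergence directed soil spray of test chemicals in non-phytotoxic solvent with surfactant; postemergence treatment was applied at one- to two-leaf stage (2–10 cm). After 10 days in greenhouse, injury rated visually versus untreated controls, 0 (no effect) to 100 (complete control).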
# green foxtail [2] = experiment: Test C preemergence; format: in vivo, Setaria viridis; conditions: 0 to 100 scale (0 no effect, 100 complete control); for Plant response rating, Foxtail, Green: Preemergence, 500 g ai/ha, visual rating after 10 days; for Foxtail, Green plant response rating: Test C, preemergence, 125 g ai/ha
# Procedure, shortened: as §1
# soybean [3] = experiment: Test C postemergence; format: in vivo, Glycine max; conditions: 10 days
# Procedure, shortened: as §1
# kochia [4] = experiment: Test C postemergence; format: in vivo, Bassia scoparia; conditions: 10 days
# Procedure, shortened: as §1
# pigweed, palmer [5] = experiment: Test C postemergence; format: in vivo, Amaranthus palmeri; conditions: 10 days
# Procedure, shortened: as §1
# ducksalad = experiment: Test D flooded paddy test; format: in vivo, Heteranthera limosa; conditions: 250 g ai/ha, applied to paddy water, visual rating after 13 to 14 days, scale 0 to 100 (0 no effect, 100 complete control)
# Procedure, shortened: (§2)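 Seedlings reached the 2-leaf stage, then pots were flooded to 3 cm over the soil surface. Compound was applied into the water, depth was maintained, and plants stayed in the greenhouse 13 to 14 days before visual scoring (0–100) relative to controls.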
# wheat [6] = experiment: Test C postemergence; format: in vivo, Triticum aestivum; conditions: 10 days
# Procedure, shortened: as §1
# soybean [7] = experiment: Test C preemergence; format: in vivo, Glycine max; conditions: 0 to 100 scale (0 no effect, 100 complete control); for Plant response rating, Soybean: Preemergence, 500 g ai/ha, visual rating after 10 days; for Soybean plant response rating: Test C, preemergence, 125 g ai/ha
# Procedure, shortened: as §1
# barnyardgrass [8] = experiment: Test C postemergence; format: in vivo, Echinochloa crusgalli; conditions: 10 days
# Procedure, shortened: as §1
# ragweed [9] = experiment: Test C preemergence; format: in vivo, Ambrosia artemisiifolia; conditions: 0 to 100 scale (0 no effect, 100 complete control); for Plant response rating, Ragweed: Preemergence, 500 g ai/ha, visual rating after 10 days; for Ragweed plant response rating: Test C, preemergence, 125 g ai/ha
# Procedure, shortened: as §1
# ragweed [10] = experiment: Test C postemergence; format: in vivo, Ambrosia artemisiifolia; conditions: 10 days
# Procedure, shortened: as §1
# pigweed, palmer [11] = experiment: Test C preemergence; format: in vivo, Amaranthus palmeri; conditions: 0 to 100 scale (0 no effect, 100 complete control); for Plant response rating, Pigweed, Palmer: Preemergence, 500 g ai/ha, visual rating after 10 days; for Pigweed, Palmer plant response rating: Test C, preemergence, 125 g ai/ha
# Procedure, shortened: as §1
# blackgrass [12] = experiment: Test C postemergence; format: in vivo, Alopecurus myosuroides; conditions: 10 days
# Procedure, shortened: as §1
# corn [13] = experiment: Test C preemergence; format: in vivo, Zea mays; conditions: 0 to 100 scale (0 no effect, 100 complete control); for Plant response rating, Corn: Preemergence, 500 g ai/ha, visual rating after 10 days; for Corn plant response rating: Test C, preemergence, 125 g ai/ha
# Procedure, shortened: as §1
# barnyardgrass [14] = experiment: Test D flooded paddy test; format: in vivo, Echinochloa crus-galli; conditions: 250 g ai/ha, applied to paddy water, visual rating after 13 to 14 days, scale 0 to 100 (0 no effect, 100 complete control)
# Procedure, shortened: as §2
# green foxtail [15] = experiment: Test C postemergence; format: in vivo, Setaria viridis; conditions: 10 days
# Procedure, shortened: as §1
# blackgrass [16] = experiment: Test C preemergence; format: in vivo, Alopecurus myosuroides; conditions: 0 to 100 scale (0 no effect, 100 complete control); for Plant response rating, Blackgrass: Preemergence, 500 g ai/ha, visual rating after 10 days; for Blackgrass plant response rating: Test C, preemergence, 125 g ai/ha
# Procedure, shortened: as §1
# horseweed = experiment: Test C postemergence; format: in vivo, Erigeron canadensis; conditions: 10 days
# Procedure, shortened: as §1
# ryegrass, Italian [17] = experiment: Test C postemergence; format: in vivo, Lolium multiflorum; conditions: 10 days
# Procedure, shortened: as §1
# ryegrass, Italian [18] = experiment: Test C preemergence; format: in vivo, Lolium multiflorum; conditions: 0 to 100 scale (0 no effect, 100 complete control); for Plant response rating, Ryegrass, Italian: Preemergence, 500 g ai/ha, visual rating after 10 days; for Ryegrass, Italian plant response rating: Test C, preemergence, 125 g ai/ha
# Procedure, shortened: as §1
# galium = experiment: Test C postemergence; format: in vivo, Galium aparine; conditions: 10 days
# Procedure, shortened: as §1
# corn [19] = experiment: Test C postemergence; format: in vivo, Zea mays; conditions: 10 days
# Procedure, shortened: as §1
# rice = experiment: Test D flooded paddy test; format: in vivo, Oryza sativa; conditions: 250 g ai/ha, applied to paddy water, visual rating after 13 to 14 days, scale 0 to 100 (0 no effect, 100 complete control)
# Procedure, shortened: as §2
# sedge, umbrella = experiment: Test D flooded paddy test; format: in vivo, Cyperus difformis; conditions: 250 g ai/ha, applied to paddy water, visual rating after 13 to 14 days, scale 0 to 100 (0 no effect, 100 complete control)
# Procedure, shortened: as §2
# kochia [20] = experiment: Test C preemergence; format: in vivo, Bassia scoparia; conditions: 0 to 100 scale (0 no effect, 100 complete control); for Plant response rating, Kochia: Preemergence, 500 g ai/ha, visual rating after 10 days; for Kochia plant response rating: Test C, preemergence, 125 g ai/ha
# Procedure, shortened: as §1
# oat, wild [21] = experiment: Test C postemergence; format: in vivo, Avena fatua; conditions: 10 days
# Procedure, shortened: as §1
# wheat [22] = experiment: Test C preemergence; format: in vivo, Triticum aestivum; conditions: 0 to 100 scale (0 no effect, 100 complete control); for Plant response rating, Wheat: Preemergence, 500 g ai/ha, visual rating after 10 days; for Wheat plant response rating: Test C, preemergence, 125 g ai/ha
# Procedure, shortened: as §1
# barnyardgrass [23] = experiment: Test C preemergence; format: in vivo, Echinochloa crusgalli; conditions: 0 to 100 scale (0 no effect, 100 complete control); for Plant response rating, Barnyardgrass: Preemergence, 500 g ai/ha, visual rating after 10 days; for Barnyardgrass plant response rating: preemergence, 125 g ai/ha
# Procedure, shortened: as §1
# [24] = 125 g ai/ha, postemergence, 0 to 100 scale, 0 no effect, 100 complete control
# [25] = Postemergence, 500 g ai/ha, visual 0 to 100 scale (0 no effect, 100 complete control)
smiles,measurement,setting,value
"CC(C)c1ncn(-c2cc3c(c(C(=O)N4C[C@H](C)Oc5c(Cl)cccc54)c2)OCO3)n1 [Compound 258, [(2S)-8-chloro-2-methyl-2,3-dihydro-1,4-benzoxazin-4-yl]-[6-(3-isopropyl-1,2,4-triazol-1-yl)-1,3-benzodioxol-4-yl]methanone]","Plant response rating, Oat, Wild","oat, wild [1]",90
same,"Oat, Wild plant response rating","oat, wild [1]",40
same,"Plant response rating, Foxtail, Green",green foxtail [2],100
same,"Foxtail, Green plant response rating",green foxtail [2],100
same,"Plant response rating, Soybean",soybean [3]; [24],100
same,"Plant response rating, Soybean",soybean [3]; [25],100
same,"Plant response rating, Kochia",kochia [4]; [24],70
same,"Plant response rating, Kochia",kochia [4]; [25],100
same,"Plant response rating, Pigweed, Palmer","pigweed, palmer [5]; [24]",100
same,"Plant response rating, Pigweed, Palmer","pigweed, palmer [5]; [25]",100
same,"Plant response rating, Ducksalad (Flood)",ducksalad,98
same,"Plant response rating, Wheat",wheat [6]; [24],20
same,"Plant response rating, Wheat",wheat [6]; [25],50
same,"Plant response rating, Soybean",soybean [7],100
same,Soybean plant response rating,soybean [7],50
same,"Plant response rating, Barnyardgrass",barnyardgrass [8]; [24],40
same,"Plant response rating, Barnyardgrass",barnyardgrass [8]; [25],90
same,"Plant response rating, Ragweed",ragweed [9],50
same,Ragweed plant response rating,ragweed [9],40
same,"Plant response rating, Ragweed",ragweed [10]; [24],70
same,"Plant response rating, Ragweed",ragweed [10]; [25],90
same,"Plant response rating, Pigweed, Palmer","pigweed, palmer [11]",100
same,"Pigweed, Palmer plant response rating","pigweed, palmer [11]",100
same,pest or weed control at 125 g/ha,"blackgrass [12]; Alopecurus myosuroides, post-emergence, 240 h, 125 g ai/ha, postemergence, 0 to 100 scale (0 no effect, 100 complete control), read-out: Plant response rating, Blackgrass",50%
same,pest or weed control at 500 g/ha,"blackgrass [12]; Alopecurus myosuroides, post-emergence, 240 h, Postemergence, 500 g ai/ha, visual 0 to 100 scale (0 no effect, 100 complete control), read-out: Plant response rating, Blackgrass",100%
same,"Plant response rating, Corn",corn [13],20
same,Corn plant response rating,corn [13],10
same,"Plant response rating, Barnyardgrass (Flood)",barnyardgrass [14],35
same,"Plant response rating, Foxtail, Green",green foxtail [15]; [24],50
same,"Plant response rating, Foxtail, Green",green foxtail [15]; [25],90
same,"Plant response rating, Blackgrass",blackgrass [16],60
same,Blackgrass plant response rating,blackgrass [16],40
same,"Plant response rating, Horseweed",horseweed; [24],70
same,"Plant response rating, Horseweed",horseweed; [25],90
same,"Plant response rating, Ryegrass, Italian","ryegrass, Italian [17]; [24]",50
same,"Plant response rating, Ryegrass, Italian","ryegrass, Italian [17]; [25]",80
same,"Plant response rating, Ryegrass, Italian","ryegrass, Italian [18]",100
same,"Ryegrass, Italian plant response rating","ryegrass, Italian [18]",90
same,"Plant response rating, Galium",galium; [24],100
same,"Plant response rating, Galium",galium; [25],100
same,"Corn plant response rating (crop injury, 0 = no effect, 100 = complete kill) at 125 g/ha","corn [19]; Zea mays, post-emergence, 240 h, 125 g ai/ha, postemergence, 0 to 100 scale (0 no effect, 100 complete control)",70%
same,"Corn plant response rating (crop injury, 0 = no effect, 100 = complete kill) at 500 g/ha","corn [19]; Zea mays, post-emergence, 240 h, Postemergence, 500 g ai/ha, visual 0 to 100 scale (0 no effect, 100 complete control)",80%
same,"Plant response rating, Rice (Flood)",rice,10
same,"Plant response rating, Sedge, Umbrella (Flood)","sedge, umbrella",98
same,"Plant response rating, Kochia",kochia [20],100
same,Kochia plant response rating,kochia [20],90
same,"Plant response rating, Oat, Wild","oat, wild [21]; [24]",30
same,"Plant response rating, Oat, Wild","oat, wild [21]; [25]",90
same,"Plant response rating, Wheat",wheat [22],60
same,Wheat plant response rating,wheat [22],50
same,"Plant response rating, Barnyardgrass",barnyardgrass [23],100
same,Barnyardgrass plant response rating,barnyardgrass [23]; Test C,80
C[C@H]1CN(C(=O)c2cccc(-n3cnc(C(C)(C)O)n3)c2)c2cccc(Cl)c2O1 [Compound 169],"Plant response rating, Oat, Wild","oat, wild [1]",90
same,"Oat, Wild plant response rating","oat, wild [1]",80
same,"Plant response rating, Foxtail, Green",green foxtail [2],100
same,"Foxtail, Green plant response rating",green foxtail [2],100
same,"Plant response rating, Soybean",soybean [3]; [24],100
same,"Plant response rating, Soybean",soybean [3]; [25],100
same,"Plant response rating, Kochia",kochia [4]; [24],90
same,"Plant response rating, Kochia",kochia [4]; [25],90
same,"Plant response rating, Pigweed, Palmer","pigweed, palmer [5]; [24]",70
same,"Plant response rating, Pigweed, Palmer","pigweed, palmer [5]; [25]",90
same,"Plant response rating, Ducksalad (Flood)",ducksalad,90
same,"Plant response rating, Wheat",wheat [6]; [24],6
same,"Plant response rating, Wheat",wheat [6]; [25],90
same,"Plant response rating, Soybean",soybean [7],90
same,Soybean plant response rating,soybean [7],90
same,"Plant response rating, Barnyardgrass",barnyardgrass [8]; [24],20
same,"Plant response rating, Barnyardgrass",barnyardgrass [8]; [25],70
same,"Plant response rating, Ragweed",ragweed [9],100
same,Ragweed plant response rating,ragweed [9],50
same,"Plant response rating, Ragweed",ragweed [10]; [24],50
same,"Plant response rating, Ragweed",ragweed [10]; [25],90
same,"Plant response rating, Pigweed, Palmer","pigweed, palmer [11]",100
same,"Pigweed, Palmer plant response rating","pigweed, palmer [11]",100
same,"Plant response rating, Blackgrass",blackgrass [12]; [24],90
same,"Plant response rating, Blackgrass",blackgrass [12]; [25],100
same,"Plant response rating, Corn",corn [13],40
same,Corn plant response rating,corn [13],0
same,"Plant response rating, Barnyardgrass (Flood)",barnyardgrass [14],0
same,"Plant response rating, Foxtail, Green",green foxtail [15]; [24],30
same,"Plant response rating, Foxtail, Green",green foxtail [15]; [25],90
same,"Plant response rating, Blackgrass",blackgrass [16],90
same,Blackgrass plant response rating,blackgrass [16],90
same,"Plant response rating, Horseweed",horseweed; [24],0
same,"Plant response rating, Horseweed",horseweed; [25],40
same,"Plant response rating, Ryegrass, Italian","ryegrass, Italian [17]; [24]",60
same,"Plant response rating, Ryegrass, Italian","ryegrass, Italian [17]; [25]",100
same,"Plant response rating, Ryegrass, Italian","ryegrass, Italian [18]",100
same,"Ryegrass, Italian plant response rating","ryegrass, Italian [18]",90
same,"Plant response rating, Galium",galium; [24],100
same,"Plant response rating, Galium",galium; [25],100
same,"Plant response rating, Corn",corn [19]; [24],80
same,"Plant response rating, Corn",corn [19]; [25],90
same,"Plant response rating, Rice (Flood)",rice,0
same,"Plant response rating, Sedge, Umbrella (Flood)","sedge, umbrella",85
same,"Plant response rating, Kochia",kochia [20],100
same,Kochia plant response rating,kochia [20],100
same,"Plant response rating, Oat, Wild","oat, wild [21]; [24]",80
same,"Plant response rating, Oat, Wild","oat, wild [21]; [25]",90
same,"Plant response rating, Wheat",wheat [22],90
same,Wheat plant response rating,wheat [22],30
same,Barnyardgrass plant response rating,barnyardgrass [23],80
same,"Plant response rating, Barnyardgrass",barnyardgrass [23],100
